Measurements from patent publication US20230302022A1, “PREVENTING OR MITIGATING CHEMOTHERAPY INDUCED ALOPECIA USING VITAMIN D” (priority 2016, published 2023).
“And” between values parts separate entries of the source, which are not always exact repeats. Equal entries are not always repeated. “Also recorded” adds a separate entry of the source.

Key:
[1] = system: PaCa2 (pancreatic carcinoma); test: Cell growth / viability assay, PaCa2; format: cell-based
Procedure: (§1) The drug treatment period was usually three days. At the end of the three days, the background OD of the 96-well plate was read at 280 nm, before 20 μL of the “Substrate Cell Titer 96 Aqueous One Solution Reagent” (Promega) was added to each well. The plate was returned to the 37° C. incubator, and its OD at 490 nm was read each hour until an OD of approximately 1.5 was reached. The net OD increase was calculated by subtracting the pre-substrate OD reading.
(§2) The impact of the drug on the cells was calculated by comparing the OD at different concentrations in relation to the OD of the control wells (without the drug).
(§3) Then these pretreated cells were utilized to set up the cell based assay.

[2] = system: MCF-7 (breast cancer with p53 mutation); test: Cell growth / viability assay, MCF-7; format: cell-based
Procedure: as §1, §2, §3

[3] = system: PC-3; test: Cell viability assay, PC-3; format: cell-based; settings: PC-3, 0.1 μg/mL calcitriol for two passages
Procedure: as §1, §2, §3

[4] = system: Sprague Dawley rats; test: Cyclophosphamide-induced alopecia in neonatal Sprague Dawley rats, 1,25(OH)2D3 in ethanol; format: in vivo, rat; settings: 0.2 μg 1,25(OH)2D3 in 150 μL ethanol daily day 5-10, all animals
Procedure: Neonatal Rat model and PCA model. Sprague Dawley rats were purchased from Charles River Laboratories (Wilmington, MA). C3H/HeJ mouse were purchased from Jackson Laboratories (Bar Harbour, ME). Rodents were housed and fed according to NIH guidelines. […] Uskokovic (Hoffman-La Roche, Nutley, NJ). For experiments involving C3H/HeJ mice, 1,25(OH)2D3 was purchased from Sigma (St. Louis, M0). Topical application of 1,25(OH)2D3. 1,25(OH)2D3 was dissolved in absolute ethanol and applied topically with an applicator. Control animals were similarly treated with vehicle only. Animals were then isolated for a period of 3 hours following which the treated area was washed with soap and water and dried. For CIA experiments, 1,25(OH)2D3 was given daily beginning on day 5 after birth and ending on day 10. […] For CIA and PCA, the experimental group was treated with 0.2 μg of 1,25(OH)2D3 in 150 μL of absolute ethanol applied topically over the head and neck. In both instances, the control group received ethanol vehicle only. […] Both chemotherapies were started at 11 days of age. Alopecia was recorded on the tenth day after the first dose of chemotherapy. […] Rats were randomized into two groups of ten rats each. One group received vehicle control, while the other received 0.2 μg 1,25(OH)2D3. […] Animals were observed until complete hair regrowth was obtained.

[5] = system: C3H/HeJ mouse; test: C3H/HeJ model of alopecia areata; format: in vivo; settings: 0.2 μg for 15 days, observed 30 days
Source text: Neonatal Rat model and PCA model. Sprague Dawley rats were purchased from Charles River Laboratories (Wilmington, MA). C3H/HeJ mouse were purchased from Jackson Laboratories (Bar Harbour, ME). Rodents were housed and fed according to NIH guidelines. […] Uskokovic (Hoffman-La Roche, Nutley, NJ). For experiments involving C3H/HeJ mice, 1,25(OH)2D3 was purchased from Sigma (St. Louis, M0). C3H/HeJ Model of Abpecia Areata. Retired breeders (8 months of age) were observed daily for the development of AA lesions.

[6] = Phase I study: serum levels of calcitriol (PK); format: in vivo, human; set-up: unit not given here; settings: individual patients
Procedure: Pharmacokinetics (all patients). For the purpose of pharmacokinetic studies (PKs), blood samples will be collected on Day 1 of topical treatment at the following time points: pre-dose, at 2 hours (+/−30 minutes), 4 hours (+/−30 minutes), and 8 hours (+/−1 hour post dose) after a single application on the morning of Day 1. The second application of drug product will be applied 10-14 hours after the initial application and after the 8 hour PK sample. Thereafter, topical application frequency will be twice daily, morning and night. Subsequently, a PK sample will be taken 12 hours (+/−2 hours) after the last dose of each 28 day treatment, before the first application of Day 1 of the next 28 day treatment cycle. This schedule will continue for three consecutive 28 day topical treatment cycles. (PKs will be drawn at weeks 1, 5, 9, and 13. In addition if patients are still on study, a PK will also be drawn at week 54.) Vital signs will be obtained approximately 5 minutes before each blood collection, and the actual collection times will be recorded.
At each collection, collect blood by venipuncture in a serum separator tube(s). Centrifuge at 1200 RCF for 10±5 minutes, and aliquot 1.5 mL of serum each into 2 labeled externally threaded cryogenic vials and immediately freeze. […] Serum samples will be transported with a sufficient amount of dry ice to keep the samples frozen until arrival.
Each patient underwent PK analysis, adverse event monitoring, patient self-assessment diaries (1-10 scale), and blinded photographic assessments. […] Toxicity was determined on a weekly basis during Cycle 1 (i.e., the first 28 days of topical agent application) and subsequently every four weeks. Patients were managed with adequate safety (adverse event) monitoring and pharmacokinetic (PK) analysis in order to determine levels of exposure.

[7] = system: C57BL/6 mice; settings: cited from earlier work
[8] = system: chloroleukemia C51 cells; settings: 0.2 μg pretreatment prior to cyclophosphamide; cited from earlier work

With `C=C1/C(=C\C=C2/CCC[C@]3(C)[C@@H]([C@H](C)CCCC(C)(C)O)CC[C@@H]23)C[C@@H](O)C[C@@H]1O` [Calcitriol, (5Z,7E)-9,10-secocholesta-5,7.10(19Hriene-1 a,33.25-triol] the “effect of calcitriol on cell growth” value ([1]; PaCa2, wide range of calcitriol concentrations) was “no significant growth promoting or growth inhibiting effects; also recorded: not responsive”, the “effect of calcitriol on the cytotoxic effect of Doxorubicin” value ([1]; PaCa-2) was “did not appear to appreciably alter” and the “5-FU ED50 curve with vs without calcitriol” value ([1]; PaCa-2, 0.1 μg/mL calcitriol) was “not significantly different”. The “response to doxorubicin, cisplatin and erlotinib after calcitriol exposure” value (“response … after calcitriol exposure” for short) ([1]; PaCa-2, 0.1 μg/mL calcitriol for two passages) was “did not alter”, the “effect of calcitriol on the cytotoxic effect of Doxorubicin” value ([2]; MCF-7) was “did not appear to appreciably alter” and the “response … after calcitriol exposure” value ([2]; MCF-7, 0.1 μg/mL calcitriol for two passages) was “did not alter”. The “response … after calcitriol exposure” value [3] was “did not alter”, the cyclophosphamide-induced alopecia [4] was “did not develop alopecia” and the “regrowth of hair in alopecic lesions” value [5] was “No regrowth of hair”. For the same molecule, the “Serum Levels of Calcitriol” value ([6]; 5 μg/mL, Week 1, Hour 0 (pre-dose)) was 43.8 and 47.9 and 55.3, the “Serum Levels of Calcitriol” value ([6]; 5 μg/mL, Week 1, Hour 2) was 38.8 and 48.4 and 46.2 and the “Serum Levels of Calcitriol” value ([6]; 5 μg/mL, Week 1, Hour 4) was 45 and 51 and 58.7. The “Serum Levels of Calcitriol” value ([6]; 5 μg/mL, Week 1, Hour 8) was 33.2 and 44.4 and 39.5, the “Serum Levels of Calcitriol” value ([6]; 5 μg/mL, Week 5, Hour 0) was 57.5 and 49.6 and 61.8 and the “Serum Levels of Calcitriol” value ([6]; 5 μg/mL, Week 9, Hour 0) was 63.2 and 46.5. For the same molecule, the “Serum Levels of Calcitriol” value ([6]; 5 μg/mL, Week 13, Hour 0) was 56 and 54.6, the “Serum Levels of Calcitriol” value ([6]; 10 μg/mL, Week 1, Hour 0 (pre-dose)) was 37.7 and 60 and 32 and the “Serum Levels of Calcitriol” value ([6]; 10 μg/mL, Week 1, Hour 2) was 32.9 and 59 and 33. The “Serum Levels of Calcitriol” value ([6]; 10 μg/mL, Week 1, Hour 4) was 36.7 and 57 and 31, the “Serum Levels of Calcitriol” value ([6]; 10 μg/mL, Week 1, Hour 8) was 50 and 28 and the “Serum Levels of Calcitriol” value ([6]; 10 μg/mL, Week 5, Hour 0) was 83.2 and 32 and 44. The “Serum Levels of Calcitriol” value ([6]; 10 μg/mL, Week 9, Hour 0) was 41, the “Serum Levels of Calcitriol” value ([6]; 10 μg/mL, Week 13, Hour 0) was 25.9 and the “Serum Levels of Calcitriol” value ([6]; 20 μg/mL, Week 1, Hour 0 (pre-dose)) was 110 and 33.7 and 41 and 46.8 and 40. The “Serum Levels of Calcitriol” value ([6]; 20 μg/mL, Week 1, Hour 2) was 90 and 38 and 54.1 and 40, the “Serum Levels of Calcitriol” value ([6]; 20 μg/mL, Week 1, Hour 4) was 85 and 22.4 and 39 and 50.1 and 41 and the “Serum Levels of Calcitriol” value ([6]; 20 μg/mL, Week 1, Hour 8) was 65 and 26.4 and 38 and 53.7 and 39. For the same molecule, the “Serum Levels of Calcitriol” value ([6]; 20 μg/mL, Week 5, Hour 0) was 27.3 and 98 and 56.4, the “Serum Levels of Calcitriol” value ([6]; 20 μg/mL, Week 9, Hour 0) was 64.9 and 37.7 and the “Serum Levels of Calcitriol” value ([6]; 40 μg/mL, Week 1, Hour 0 (pre-dose)) was 44.7. For the same molecule, the “Serum Levels of Calcitriol” value ([6]; 40 μg/mL, Week 1, Hour 2) was 75.2 and 67.1, the “Serum Levels of Calcitriol” value ([6]; 40 μg/mL, Week 1, Hour 4) was 56.1 and 68.4 and the “Serum Levels of Calcitriol” value ([6]; 40 μg/mL, Week 1, Hour 8) was 30.1 and 66.9. The “Serum Levels of Calcitriol” value ([6]; 40 μg/mL, Week 9, Hour 0) was 37.3, the “Serum Levels of Calcitriol” value ([6]; 40 μg/mL, Week 13, Hour 0) was 92 and 46.7 and the “Serum Levels of Calcitriol” value ([6]; 60 μg/mL, Week 1, Hour 0 (pre-dose)) was 29.1 and 36.4. For the same molecule, the “Serum Levels of Calcitriol” value ([6]; 60 μg/mL, Week 1, Hour 2) was 21.3 and 38.5 and 42, the “Serum Levels of Calcitriol” value ([6]; 60 μg/mL, Week 1, Hour 4) was 24.7 and 41.2 and 42.9 and the “Serum Levels of Calcitriol” value ([6]; 60 μg/mL, Week 1, Hour 8) was 23.3 and 39.4 and 41.5. For the same molecule, the “Serum Levels of Calcitriol” value ([6]; 60 μg/mL, Week 5, Hour 0) was 65.4 and 81.6, the “Serum Levels of Calcitriol” value ([6]; 60 μg/mL, Week 9, Hour 0) was 60.7 and 61.5 and the “Serum Levels of Calcitriol” value ([6]; 60 μg/mL, Week 13, Hour 0) was 45. The “Serum Levels of Calcitriol” value ([6]; 80 μg/mL, Week 1, Hour 0 (pre-dose)) was 28.3 and 29.4 and 55.7, the “Serum Levels of Calcitriol” value ([6]; 80 μg/mL, Week 1, Hour 2) was 31.8 and 35.6 and 64.8 and the “Serum Levels of Calcitriol” value ([6]; 80 μg/mL, Week 1, Hour 4) was 29.6 and 42.1 and 61.4. The “Serum Levels of Calcitriol” value ([6]; 80 μg/mL, Week 1, Hour 8) was 36.6 and 58.9, the “Serum Levels of Calcitriol” value ([6]; 80 μg/mL, Week 5, Hour 0) was 95.5 and the “follicular apoptosis induced by cyclophosphamide” value ([7]; C57BL/6 mice, topical) was “significantly diminish the degree of follicular apoptosis”. For the same molecule, the “prevention of cyclophosphamide-induced alopecia” value ([7]; female C57BL/6 adolescent mice) was “failed to demonstrate efficacy”, the “regrowth of pigmented hair shafts” value ([7]; female C57BL/6 adolescent mice) was “significantly accelerated, enhanced, and quantitatively improved” and the “survival rate vs ethanol vehicle” value [8] was “No statistically significant difference in the survival rate”.
